These results are taken from patent publication US11865125B2, “APKC inhibitors and methods of treating a neurodegenerative disease or disorder” (UNIVERSITY OF SOUTH FLORIDA, priority 2016, dated 2024).

The structures appear in SMILES notation. “Also recorded” adds a separate entry of the source.

In test [1] the test system is Akt substrates FOXO1, FOXO3a, GSK3β, and mTOR. Put plainly: phosphorylation of Akt substrates in mouse brain. It counts as in vivo. To be noted: Het-MλKO mice, s.c. once daily for 8 days (ICAPP 0.4 mg/kg, ATM 60 mg/kg). An excerpt:
(§1) Mouse Studies. Brain samples were obtained from normal and insulin-resistant mice and monkeys used previously, and includes mice originally used in studies of insulin signaling and resistance in liver: (a) 4-6 month old C57Bl/6 mice used in studies of high-fat-feeding [USF Vivarium] [6]; 4-6 month-old male C57Bl/6 ob/ob and lean ob+ mice (Jackson Labs, Bar Harbor, Maine); and (c) 10-12 month-old C57Bl/6 Het-MλKO mice [USF Vivarium] [8]. […] Where indicated normal mice were given a single SC injection of saline or saline containing 1.5 mg/kg ICAPP to follow time-related alterations in brain signaling factors. Where indicated, mice were treated intraperitoneally (IP) with insulin (1 U/kg body weight) or vehicle 15-min before euthanization by administration of Xylazine/Ketamine, followed by whole body perfusion with phosphate-buffered saline and rapid removal of brain and other tissues.
Tissue Preparations. As described, mouse brains were hemisected sagittally, and one-half was frozen in liquid N2, stored at −80° C., and samples thereof were homogenized in buffer containing 0.25M sucrose, 20 mM Tris/HCl (pH, 7.5), 2 mmol/l EGTA, 2 mM EDTA, 1 mM phenlysulfonoylfluoride (PMSF), 20 μg/ml leupeptin, 10 μg/ml aprotinin, 2 mM Na4P2O7, 2 mM Na3VO4, 2 mM NaF, and 1 μM microcystin, and then supplemented with 1% TritonX-100, 0.6% Nonidet and 150 mM NaCl.
Western Analyses. […]

Test [2] in a line: serum insulin levels / hyperinsulinemia in insulin-resistant mice. It is filed as in vivo, mouse. To be noted: Het-MλKO mice.
Text: as §1
Where indicated, mice were randomly treated with insulin (1 unit/kg/bw i.p.) 15 min before being euthanized by administration of xylazine/ketamine, followed by whole-body perfusion with PBS and rapid removal of brain and other tissues.

For test [3], the system named is Akt substrates, GSK3β and mTOR. As to the kind of experiment: phosphorylation of Akt substrates in LA1-5s neuroblastoma cells. It counts as cell-based, human. Conditions: LA1-5s cells, 200 nM insulin, data not shown. How it is done:
Relative bar values in panel a are mean±SEM of 6 determinations. Asterisks: *, P<0.05; **, P<0.01; ***, P<0.001 (ANOVA). Values in panel b are means of 2-4 determinations.
Western Analyses. As described, Western analyses were conducted with rabbit antisera or mouse monoclonal antibodies (mMab), using: anti-aPKC (Santa Cruz Biotechnologies, Santa Cruz, CA); anti-phospho-threonine-560/555-PKC-ζ/λ/ι (Invitrogen, Carlsbad, CA); anti-p-serine-256-FoxO1 and anti-FoxO1 (Abnova, Walnut, CA); anti-Akt (mMab), anti-phospho-serine-473-Akt, anti-phospho-serine-9-GSK3P anti-GSK313, anti-phospho-serine-253-FoxO3a, anti-FoxO3a, anti-phospho-serine-256-FoxO1, anti-phospho-serine-193-FoxO4; anti-FoxO1, anti-phospho-serine-2448-mTOR, anti-mTOR, anti-β-amyloid (anti-5-10 kDa-Aβ1-40/42) and anti-amyloid precursor protein (anti-120 kDa-APP) (Cell Signaling Technologies, Danvers, MA); and anti-phospho-serine-202-tau, anti-phospho-threonine-231-tau (Gene Tex, Irvine, CA). Samples from experimental groups were compared on the same blots, and routinely checked with loading controls. Note that: insulin-sensitive 70 kDa aPKC is largely PKC-ζ in mouse brain and orthologous PKC-ι (98% aa homology) in monkey and other primate brains; brain PKC-ζ exists largely as a 50 kDa moiety that, lacking a regulatory domain, is constitutively-active and unresponsive to insulin.

Test [4] concerns the target T1, recombinant PKC-ι (Homo sapiens, UniProt P41743).
T1 sequence (P41743 1-596): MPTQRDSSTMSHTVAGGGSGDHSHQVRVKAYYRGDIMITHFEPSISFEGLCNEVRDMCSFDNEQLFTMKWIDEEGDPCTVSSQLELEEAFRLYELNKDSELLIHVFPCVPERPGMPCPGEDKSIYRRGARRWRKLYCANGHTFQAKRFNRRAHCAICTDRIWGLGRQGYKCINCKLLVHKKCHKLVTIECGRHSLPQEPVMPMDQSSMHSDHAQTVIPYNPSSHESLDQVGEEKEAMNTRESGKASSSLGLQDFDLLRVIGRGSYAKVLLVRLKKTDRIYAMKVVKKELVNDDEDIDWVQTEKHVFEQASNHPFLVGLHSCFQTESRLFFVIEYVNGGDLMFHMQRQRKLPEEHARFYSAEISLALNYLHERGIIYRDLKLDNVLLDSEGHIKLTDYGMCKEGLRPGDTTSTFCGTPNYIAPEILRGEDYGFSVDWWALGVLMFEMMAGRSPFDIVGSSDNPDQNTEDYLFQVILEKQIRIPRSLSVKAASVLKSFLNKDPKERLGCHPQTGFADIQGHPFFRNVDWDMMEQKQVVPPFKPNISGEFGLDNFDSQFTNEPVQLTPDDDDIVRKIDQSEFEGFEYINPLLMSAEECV
To be noted: cited from earlier work.

The target of test [5] is T2, aPKC (Homo sapiens, UniProt P41743).
T2 sequence (P41743 2-596): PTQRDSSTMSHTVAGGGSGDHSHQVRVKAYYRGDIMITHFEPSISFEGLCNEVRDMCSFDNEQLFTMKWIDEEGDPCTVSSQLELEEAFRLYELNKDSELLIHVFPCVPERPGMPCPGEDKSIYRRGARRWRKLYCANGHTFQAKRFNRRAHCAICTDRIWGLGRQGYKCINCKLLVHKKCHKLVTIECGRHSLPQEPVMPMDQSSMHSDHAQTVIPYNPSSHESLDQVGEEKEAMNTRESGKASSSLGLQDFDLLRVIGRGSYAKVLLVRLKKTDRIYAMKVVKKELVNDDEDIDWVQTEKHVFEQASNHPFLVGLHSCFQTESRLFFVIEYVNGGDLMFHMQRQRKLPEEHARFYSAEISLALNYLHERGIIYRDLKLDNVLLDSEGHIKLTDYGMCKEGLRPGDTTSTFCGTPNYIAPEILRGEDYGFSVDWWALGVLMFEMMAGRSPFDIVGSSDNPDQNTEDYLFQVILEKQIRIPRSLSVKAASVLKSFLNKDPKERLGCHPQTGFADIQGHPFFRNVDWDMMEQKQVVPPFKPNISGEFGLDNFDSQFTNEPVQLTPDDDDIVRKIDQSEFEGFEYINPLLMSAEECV
More on the design: endogenous in cells. To be noted: previously seen, stated as similar; read-out: IC50, inhibition of aPKC activity in isolated human hepatocytes; cited from earlier work.

Turning to `NC(=O)c1ncn([C@@H]2C[C@H](COP(=O)(O)O)[C@@H](O)[C@H]2O)c1N` [ICAPP], the “resting/basal phosphorylation of Akt substrates in brain” value in test [1] is on record as “diminished”. Further, the “acute insulin-stimulated phosphorylation of Akt substrates in brain” value in test [1] (insulin 1 U/kg i.p. 15 min) is reported as “restored ability of insulin; also recorded: fully able”. For the same compound, the hyperinsulinemia entry in test [2] is “hyperinsulinemia was corrected; also recorded: fully reversed”. In addition, the “effect on insulin-stimulated phosphorylation of Akt substrates” value in test [3] is given as “without altering”. Also, the “inhibition of recombinant PKC-ι” value in test [4] is “preferentially inhibit recombinant PKC-ι”. The IC50 in test [4] (previously seen, stated as similar, read-out: IC50, inhibition of recombinant PKC-λ/ι) is 1 to 10 nM; in test [5] it was 1 to 10 nM.
